In article PMC9865397, “Colon-Targeted Trans-Cinnamic Acid Ameliorates Rat Colitis by Activating GPR109A” (Pharmaceutics, 2022):

Key:
DNBS-induced rat colitis = experiment: DNBS-induced rat colitis, anti-colitic effects; type: in vivo; conditions: for CINC-3 level in inflamed distal colon / MPO activity in inflamed distal colon / iNOS and COX-2 protein levels in inflamed distal colon / colonic damage (CDS): oral once per day for 6 days, tCA 30 mg/kg; for CINC-3 level in inflamed distal colon / MPO activity in inflamed distal colon / iNOS and COX-2 protein levels in inflamed distal colon: tCA-GA L and H; for colonic damage (CDS): tCA-GA equivalent to 15 (L) and 30 (H) mg/kg tCA, SSZ 30 mg/kg
Method: For an animal experiment to evaluate the anti-colitic effects of drugs, six groups (n = 5 rats per group) were made and treated via oral gavage as follows: normal group, 1.0 mL of phosphate buffered saline (pH 7.4, PBS); colitis group, 1.0 mL of PBS; tCA-treated colitis group, tCA (30 mg/kg) in 1.0 mL of PBS; tCA-GA-treated colitis group (L), tCA-GA (28 mg/kg, equivalent to 15 mg/kg of tCA) in 1.0 mL of PBS; tCA-GA-treated colitis group (H), tCA-GA (56 mg/kg, equivalent to 30 mg/kg of tCA) in 1.0 mL of PBS; SSZ-treated colitis group, SSZ (30 mg/kg) in 1.0 mL of PBS. For the other experiment to evaluate GPR109A-dependent anti-colitic effects of tCA-GA, five groups (n = 5 rats per group) were made and treated via oral gavage as follows: normal group, 1.0 mL of PBS; colitis group, 1.0 mL of PBS; tCA-GA-treated colitis group, tCA-GA (28 mg/kg) in 1.0 mL of PBS; tCA-GA + MPZ-treated colitis group, tCA-GA (28 mg/kg) and MPZ (2 mg/kg) in 1.0 mL of PBS; MPZ-treated colitis group, MPZ (2 mg/kg) in 1.0 mL of PBS.
DNBS-mediated colitis was induced in rats as described previously. Additionally, 3 days after the induction of colitis, the drugs were administered once per day for 6 days as in Section 2.10. The rats were killed to obtain the inflamed distal colon. The colonic damage score (CDS), assessing pathological state in colon tissue and neighbor organs ascribed to DNBS-induced inflammation, was calculated according to the criteria set previously. For histological evaluation, fixed colon tissues were embedded in paraffin, sections with a thickness of 4 μm were cut and stained with hematoxylin and eosin (H&E). The sections were examined under a light microscope (Olympus BX43, Olympus Co., Tokyo, Japan). Myeloperoxidase (MPO) activity was measured as described previously.
(§1) Changes in levels of the proteins were monitored using Western blotting. Cell lysates and tissue lysates of the distal colon were prepared for Western blot analysis as described previously. To determine the protein concentrations in the lysates, bicinchoninic acid reagent (Thermo Fisher Scientific, Waltham, MA, USA) was used according to the manufacturer’s instructions. SDS-PAGE (10 or 7.5% gels) was used to separate and analyze the proteins in the sample lysates. Anti-cyclooxygenase (COX-2, sc-365374, Santa Cruz Biotechnology, Dallas, TX, USA) and anti-inducible nitric oxide synthase (iNOS) antibodies (sc-7271, Santa Cruz Biotechnology) were used to detect COX-2 and iNOS proteins, respectively. Horseradish peroxidase-conjugated secondary antibodies (Santa Cruz Biotechnology) were used to label the primary antibodies. The protein bands in membranes were visualized using the SuperSignal chemiluminescence substrate (Thermo Fisher Scientific, Waltham, MA, USA). As a loading control, α-tubulin was detected using an anti-α-tubulin antibody (Santa Cruz Biotechnology). Intensity of Western blots was quantified using Image Lab software (version 5.2 build 14, Bio-Rad, Hercules, CA, USA). The mean values (n = 3 for cell experiments, n = 5 for animal experiments) were shown under the blots in figures. Original images of Western blots are shown in Supplementary Data S1.
The distal colon samples (0.1 g) obtained from rats were minced in a potassium phosphate buffer (pH 6.0, 1.0 mL), homogenized using a T10 basic/IKA homogenizer (ULTRA-TURRAX®, Staufen im Breisgau, Germany), and centrifuged at 10,000× g for 10 min at 4 °C. The levels of CINC-3 and IL-10 were determined in the samples using ELISA kits, according to the manufacturer’s instructions.

RAW 264.7 cells = experiment: LPS-stimulated RAW 264.7 cells: IL-10, COX-2 and iNOS levels; type: cell-based, murine
Method: as §1

[1] = Stability in small intestinal contents; type: in vitro ADME; conditions: rat small intestinal contents, up to 10 h
Method: (§2) Male Sprague–Dawley (SpD) rats (250–260 g) were killed using CO2 gas. The proximal small intestinal, distal small intestinal, and cecal contents were collected separately and suspended in pH 6.8 isotonic phosphate buffer to prepare a 20% w/v suspension. tCA-GA and tCA-AA (10 mM) dissolved in pH 6.8 isotonic phosphate buffer (4 mL) were added to the suspension (4 mL) and incubated at 37 °C. To maintain anaerobic conditions, the collection of cecal contents and incubation of the conjugates in the cecal contents were conducted in a nitrogen gas bag (Sigma-Aldrich, Burlington, MA, USA). At appropriate time intervals, a portion of the mixture (0.5 mL), pipetted using a wide-orifice tip, was centrifuged in a microtube. After acidification (with 1.0 M HCl) of the supernatant (0.3 mL), EA was added and vigorously mixed. The organic layer (0.2 mL) was retrieved and evaporated. The residue, dissolved in the mobile phase (0.2 mL), was filtered and subjected to HPLC analysis. Centrifugation was conducted at 10,000× g for 10 min at 4 °C.

[2] = Conversion of conjugates to tCA in cecal contents under nitrogen; type: in vitro ADME; conditions: rat cecal contents under nitrogen
Method: as §2

[3] = Chemical stability in pH 1.2 and pH 6.8 buffers; type: physicochemical; conditions: incubation for up to 10 h
Method: Distribution coefficients (log D6.8) of tCA, tCA-AA, and tCA-GA were measured as described previously. The concentrations of drugs were determined using a UV-Vis spectrophotometer (Shimadzu, Tokyo, Japan) at 277 nm, and log D6.8 was calculated using the equation reported previously. The chemical stabilities of tCA-GA and tCA-AA were analyzed in HCl-NaCl buffer (pH 1.2) and pH 6.8 isotonic phosphate buffer, representing the physiological pH of the stomach and small intestine, respectively. […]

[4] = Distribution coefficient (log D6.8), n-octanol/buffer pH 6.8; type: physicochemical; conditions: n-octanol/buffer (pH 6.8) system; read-out: distribution coefficient (DC, log D6.8)
Method: Distribution coefficients (log D6.8) of tCA, tCA-AA, and tCA-GA were measured as described previously. The concentrations of drugs were determined using a UV-Vis spectrophotometer (Shimadzu, Tokyo, Japan) at 277 nm, and log D6.8 was calculated using the equation reported previously. The chemical stabilities of tCA-GA and tCA-AA were analyzed in HCl-NaCl buffer (pH 1.2) and pH 6.8 isotonic phosphate buffer, representing the physiological pH of the stomach and small intestine, respectively. Each drug (0.1 mM) dissolved in the buffers was incubated for at least 12 h, and change in the concentrations of the drugs was monitored using HPLC analysis.

Caco-2 cell monolayer = Caco-2 cell monolayer permeability assay; type: in vitro ADME, Human; conditions: 1.2 mM on apical side, up to 24 h, compared with tCA
Method: Caco-2 cells were seeded at 1 × 10^5 cells per insert in Transwell inserts with a pore size of 0.4 μm (SPL Inc., Houston, TX, USA). DMEM, containing 10% FBS and 1% penicillin/streptomycin, was added to the basolateral (well) (1 mL) and apical (insert) compartments (0.2 mL). The cells were grown until the trans-epithelial electrical resistance value (EMD Millipore, Billerica, MA, USA) of the cell monolayer reached 2000 Ω cm^2. After removing the culture medium, tCA and its derivatives (1.2 mM) dissolved in DMEM (0.2 mL) without phenol red and were placed on the apical side of the cell monolayer. At appropriate time intervals, the concentrations of the drugs on the basolateral side filled with DMEM (1.0 mL) were determined using HPLC.

[5] = Cleavage test with autoclaved cecal contents; type: in vitro ADME, rat; conditions: up to 24 h
[6] = tCA-GA 28 mg/kg oral once per day for 6 days (MPZ experiment)
[7] = RAW 264.7, LPS, MPZ 100 µM with tCA

| Compound | CINC-3 level in inflamed distal colon (DNBS-induced rat colitis) | MPO activity in inflamed distal colon (DNBS-induced rat colitis) | iNOS and COX-2 protein levels in inflamed distal colon (DNBS-induced rat colitis) | colonic damage (CDS) (DNBS-induced rat colitis) | change in concentration in small intestinal contents [1] | change in concentration in buffers (pH 1.2, 6.8) [3] | logD [4] | permeation through the Caco-2 cell monolayer (Caco-2 cell monolayer) | stability in autoclaved cecal contents [5] | also measured |
| --- | --- | --- | --- | --- | --- | --- | --- | --- | --- | --- |
| O=C(O)/C=C/c1ccccc1 [tCA, trans-cinnamic acid] | lowered | lowered MPO activity | lowered | ameliorated colonic damage |  |  |  |  |  | LPS-induced COX-2 and iNOS protein levels (RAW 264.7 cells; RAW 264.7, LPS 24 h, tCA pretreatment 1 h): reduced the levels of COX-2 and iNOS; IL-10 level in cell culture supernatant (RAW 264.7 cells; RAW 264.7, LPS, tCA 2 mM / 5 mM): increased the level of IL-10 |
| O=C(O)CC[C@H](NC(=O)/C=C/c1ccccc1)C(=O)O [tCA-GA, N-Cinnamoyl-L-Glutamic Acid] | lowered | lowered MPO activity | lowered | significantly more effective than tCA at mitigating pathological changes | no notable changes in the concentrations | no notable changes in the concentrations | -0.98 | substantially delayed the permeation of tCA through the cell monolayer | remained intact for up to 24 h | conversion rate to tCA [2]: higher than that of tCA-AA to tCA; H&E staining, mucosal layer of distal colon (DNBS-induced rat colitis; both doses of tCA-GA, greater than tCA and SSZ): recovered the mucosal layer of the distal colon; IL-10 level in inflamed colon (DNBS-induced rat colitis; first experiment (Supplementary Data S6), more effective than oral tCA): increased the levels of IL-10 in the inflamed colon; IL-10 level in inflamed colon (DNBS-induced rat colitis; [6]): increased the levels of IL-10 in the inflamed colon; colonic damage incl. colon length shortening (DNBS-induced rat colitis; [6]): substantially alleviates colonic damage; colonic inflammation (MPO activity, CINC-3, iNOS, COX-2 in distal colon) (DNBS-induced rat colitis; [6]): markedly suppressed |
| O=C(O)c1cc(/N=N/c2ccc(S(=O)(=O)Nc3ccccn3)cc2)ccc1O [SSZ, sulfasalazine, reference compound] |  |  |  | tCA was as effective as SSZ |  |  |  |  |  |  |
| O=C(O)C[C@H](NC(=O)/C=C/c1ccccc1)C(=O)O [tCA-AA, N-Cinnamoyl-L-Aspartic Acid] |  |  |  |  | no notable changes in the concentrations | no notable changes in the concentrations | -0.61 | substantially delayed the permeation of tCA through the cell monolayer | remained intact for up to 24 h |  |
| C[N+]1(C)CCCC(OC(=O)C(O)(c2ccccc2)c2ccccc2)C1 (centres unmarked) [MPZ, mepenzolate, reference compound] |  |  |  |  |  |  |  |  |  | inflammatory state after single treatment (DNBS-induced rat colitis; MPZ 2 mg/kg alone, oral, 6 days): inflammatory state similar to that induced by the DNBS control; effect of co-administered MPZ on colonic damage and inflammation (DNBS-induced rat colitis; MPZ 2 mg/kg co-administered with tCA-GA 28 mg/kg, oral, 6 days): significantly compromised the beneficial effects of tCA-GA; effect of co-administered MPZ on IL-10 level in inflamed colon (DNBS-induced rat colitis; MPZ 2 mg/kg combined with tCA-GA 28 mg/kg, oral, 6 days): significantly suppressed the increase in the levels of IL-10; effect of MPZ on tCA suppression of COX-2 and iNOS (RAW 264.7 cells; [7]): undermined the suppressive effects of tCA; effect of MPZ on tCA-increased IL-10 level (RAW 264.7 cells; [7]): significantly suppressed by MPZ |
